Assay results published in ChEMBL document CHEMBL5291721, “A preclinical secondary pharmacology resource illuminates target-adverse drug reaction associations of marketed drugs” (Nat Commun, 2023).

Columns and labels:
[1] = target: T1, Muscarinic acetylcholine receptor M1 (Homo sapiens, UniProt P11229); assay type: functional, cell-based
T1 sequence (P11229 whole entry): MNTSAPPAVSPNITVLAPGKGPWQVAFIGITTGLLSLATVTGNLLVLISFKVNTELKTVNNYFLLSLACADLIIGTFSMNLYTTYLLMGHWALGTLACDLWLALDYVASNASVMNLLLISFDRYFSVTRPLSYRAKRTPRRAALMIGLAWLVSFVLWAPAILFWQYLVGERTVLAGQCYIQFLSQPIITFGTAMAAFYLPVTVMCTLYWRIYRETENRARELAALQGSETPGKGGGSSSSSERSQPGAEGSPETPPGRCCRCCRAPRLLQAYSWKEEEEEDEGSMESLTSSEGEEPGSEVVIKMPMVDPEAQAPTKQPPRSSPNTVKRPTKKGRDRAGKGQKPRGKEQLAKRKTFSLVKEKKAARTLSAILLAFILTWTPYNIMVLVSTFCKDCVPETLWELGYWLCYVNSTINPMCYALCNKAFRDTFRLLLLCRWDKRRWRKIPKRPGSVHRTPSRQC

Thromboxane A2 receptor = target: T2, Thromboxane A2 receptor (Homo sapiens, UniProt P21731); assay type: functional, cell-based
T2 sequence (P21731 whole entry): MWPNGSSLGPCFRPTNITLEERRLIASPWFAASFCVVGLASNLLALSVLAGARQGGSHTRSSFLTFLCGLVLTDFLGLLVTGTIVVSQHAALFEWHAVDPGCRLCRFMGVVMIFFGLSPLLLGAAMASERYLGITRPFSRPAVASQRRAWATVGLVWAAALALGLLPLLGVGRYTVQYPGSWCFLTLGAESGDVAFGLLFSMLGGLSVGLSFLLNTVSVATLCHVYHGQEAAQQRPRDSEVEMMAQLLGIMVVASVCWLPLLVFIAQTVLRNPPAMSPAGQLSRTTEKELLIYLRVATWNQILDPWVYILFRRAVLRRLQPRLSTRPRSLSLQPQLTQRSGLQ

Bile salt export pump = Bile salt export pump (Homo sapiens, UniProt O95342); assay type: functional
Histamine H3 receptor = Histamine H3 receptor (Homo sapiens, UniProt Q9Y5N1)
Adenosine receptor A1 = target: T3, Adenosine receptor A1 (Homo sapiens, UniProt P30542)
T3 sequence (P30542 whole entry): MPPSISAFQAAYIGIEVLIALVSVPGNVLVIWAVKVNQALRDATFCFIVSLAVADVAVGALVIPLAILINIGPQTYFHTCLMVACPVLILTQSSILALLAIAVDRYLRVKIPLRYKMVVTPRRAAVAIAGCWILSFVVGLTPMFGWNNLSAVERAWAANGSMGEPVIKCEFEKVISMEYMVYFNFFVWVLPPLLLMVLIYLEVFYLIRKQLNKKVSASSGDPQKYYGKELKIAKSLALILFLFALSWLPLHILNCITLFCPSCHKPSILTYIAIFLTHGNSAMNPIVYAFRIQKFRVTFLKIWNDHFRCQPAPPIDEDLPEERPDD

[2] = target: 5-hydroxytryptamine receptor 2B (Homo sapiens, UniProt P41595); assay type: functional, cell-based
[3] = target: T4, Muscarinic acetylcholine receptor M2 (Homo sapiens, UniProt P08172); assay type: functional, cell-based
T4 sequence (P08172 whole entry): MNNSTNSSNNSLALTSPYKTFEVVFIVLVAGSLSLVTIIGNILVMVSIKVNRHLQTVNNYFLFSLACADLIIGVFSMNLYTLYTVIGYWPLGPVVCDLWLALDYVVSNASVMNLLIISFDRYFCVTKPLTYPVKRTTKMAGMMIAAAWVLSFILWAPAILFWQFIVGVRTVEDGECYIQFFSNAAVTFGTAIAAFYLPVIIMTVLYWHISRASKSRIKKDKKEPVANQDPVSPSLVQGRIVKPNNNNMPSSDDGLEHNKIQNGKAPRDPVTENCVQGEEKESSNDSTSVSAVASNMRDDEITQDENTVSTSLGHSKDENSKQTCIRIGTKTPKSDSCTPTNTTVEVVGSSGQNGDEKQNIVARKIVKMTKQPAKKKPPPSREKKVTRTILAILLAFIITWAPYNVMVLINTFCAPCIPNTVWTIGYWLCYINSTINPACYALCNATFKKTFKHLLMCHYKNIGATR

[4] = target: T5, Prostaglandin G/H synthase 1 (Rattus norvegicus, UniProt Q63921); assay type: functional
T5 sequence (Q63921 whole entry): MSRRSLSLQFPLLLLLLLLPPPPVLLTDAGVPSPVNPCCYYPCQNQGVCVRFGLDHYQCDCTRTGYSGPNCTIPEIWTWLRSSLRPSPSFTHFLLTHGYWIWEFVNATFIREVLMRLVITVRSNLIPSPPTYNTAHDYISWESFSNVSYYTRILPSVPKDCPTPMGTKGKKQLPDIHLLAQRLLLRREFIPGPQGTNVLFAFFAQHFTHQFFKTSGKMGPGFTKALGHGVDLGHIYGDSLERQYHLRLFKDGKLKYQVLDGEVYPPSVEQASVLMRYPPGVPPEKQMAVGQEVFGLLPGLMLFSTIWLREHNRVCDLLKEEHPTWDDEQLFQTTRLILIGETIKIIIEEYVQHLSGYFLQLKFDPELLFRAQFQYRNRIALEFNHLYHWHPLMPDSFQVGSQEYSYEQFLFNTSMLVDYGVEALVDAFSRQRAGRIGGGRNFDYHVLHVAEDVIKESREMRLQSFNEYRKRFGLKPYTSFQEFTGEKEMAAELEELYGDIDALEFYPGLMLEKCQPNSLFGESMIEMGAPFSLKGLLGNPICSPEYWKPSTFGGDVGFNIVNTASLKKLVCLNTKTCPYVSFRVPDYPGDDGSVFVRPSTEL

[5] = target: Voltage-dependent L-type calcium channel subunit alpha-1C (Rattus norvegicus, UniProt P22002); assay type: functional
Vasopressin V2 receptor = Vasopressin V2 receptor (Homo sapiens, UniProt P30518)
Note: assay procedure not described here.

Sequence of Bile salt export pump (O95342 whole entry): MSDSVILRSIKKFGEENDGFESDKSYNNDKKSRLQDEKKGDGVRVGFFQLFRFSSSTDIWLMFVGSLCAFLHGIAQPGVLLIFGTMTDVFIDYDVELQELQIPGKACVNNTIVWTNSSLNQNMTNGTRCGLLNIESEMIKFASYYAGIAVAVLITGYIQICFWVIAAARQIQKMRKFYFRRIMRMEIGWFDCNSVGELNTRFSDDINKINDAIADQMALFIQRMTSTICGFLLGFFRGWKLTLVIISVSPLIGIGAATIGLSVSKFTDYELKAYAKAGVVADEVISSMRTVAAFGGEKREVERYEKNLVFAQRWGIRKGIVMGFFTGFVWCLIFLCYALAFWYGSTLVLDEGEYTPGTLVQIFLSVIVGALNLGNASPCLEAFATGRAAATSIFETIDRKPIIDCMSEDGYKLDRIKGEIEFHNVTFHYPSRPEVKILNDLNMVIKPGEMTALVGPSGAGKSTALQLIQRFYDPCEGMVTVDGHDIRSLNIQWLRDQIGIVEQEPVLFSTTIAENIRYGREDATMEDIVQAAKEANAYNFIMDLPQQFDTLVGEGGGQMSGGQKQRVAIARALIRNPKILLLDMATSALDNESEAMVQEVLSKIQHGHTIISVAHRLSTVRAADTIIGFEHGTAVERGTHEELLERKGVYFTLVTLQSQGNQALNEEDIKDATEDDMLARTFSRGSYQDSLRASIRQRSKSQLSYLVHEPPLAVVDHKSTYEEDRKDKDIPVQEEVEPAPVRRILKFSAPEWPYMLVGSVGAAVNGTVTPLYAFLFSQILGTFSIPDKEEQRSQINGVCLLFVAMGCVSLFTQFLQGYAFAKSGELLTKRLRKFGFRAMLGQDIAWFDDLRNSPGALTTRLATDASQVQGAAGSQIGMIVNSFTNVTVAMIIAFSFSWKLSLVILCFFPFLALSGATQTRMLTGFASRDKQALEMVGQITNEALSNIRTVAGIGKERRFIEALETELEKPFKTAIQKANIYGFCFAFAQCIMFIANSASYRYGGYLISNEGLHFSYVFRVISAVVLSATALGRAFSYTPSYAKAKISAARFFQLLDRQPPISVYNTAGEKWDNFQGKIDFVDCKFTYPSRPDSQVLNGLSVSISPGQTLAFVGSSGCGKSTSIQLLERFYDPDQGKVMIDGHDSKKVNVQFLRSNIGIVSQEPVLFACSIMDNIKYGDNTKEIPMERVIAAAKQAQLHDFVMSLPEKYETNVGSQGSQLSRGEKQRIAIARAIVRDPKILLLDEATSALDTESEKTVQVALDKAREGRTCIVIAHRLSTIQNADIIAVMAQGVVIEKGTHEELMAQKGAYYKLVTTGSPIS
Sequence of 5-hydroxytryptamine receptor 2B (P41595 whole entry): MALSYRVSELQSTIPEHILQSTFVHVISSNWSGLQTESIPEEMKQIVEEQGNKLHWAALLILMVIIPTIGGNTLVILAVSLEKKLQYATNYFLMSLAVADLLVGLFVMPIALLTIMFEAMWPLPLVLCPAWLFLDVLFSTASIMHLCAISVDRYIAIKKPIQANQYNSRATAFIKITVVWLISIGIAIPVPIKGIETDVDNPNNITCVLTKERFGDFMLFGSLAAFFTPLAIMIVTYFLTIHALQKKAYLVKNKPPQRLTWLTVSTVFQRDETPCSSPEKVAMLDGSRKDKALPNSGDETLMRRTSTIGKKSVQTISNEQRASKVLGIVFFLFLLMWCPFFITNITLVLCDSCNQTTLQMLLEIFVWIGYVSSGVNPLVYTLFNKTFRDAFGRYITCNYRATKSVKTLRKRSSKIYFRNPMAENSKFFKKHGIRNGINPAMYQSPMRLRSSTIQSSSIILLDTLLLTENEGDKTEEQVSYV
Sequence of Vasopressin V2 receptor (P30518 whole entry): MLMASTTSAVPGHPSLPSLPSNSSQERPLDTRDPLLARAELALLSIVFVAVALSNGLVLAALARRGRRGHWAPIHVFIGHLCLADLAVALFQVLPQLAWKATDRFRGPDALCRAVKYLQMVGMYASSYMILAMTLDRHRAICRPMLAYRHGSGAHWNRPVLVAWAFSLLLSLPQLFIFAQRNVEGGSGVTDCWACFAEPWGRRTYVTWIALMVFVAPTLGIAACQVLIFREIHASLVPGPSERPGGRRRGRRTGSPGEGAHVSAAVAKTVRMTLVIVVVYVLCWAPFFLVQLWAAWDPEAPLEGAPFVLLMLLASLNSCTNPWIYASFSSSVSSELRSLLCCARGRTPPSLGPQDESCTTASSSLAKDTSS
Sequence of Histamine H3 receptor (Q9Y5N1 whole entry): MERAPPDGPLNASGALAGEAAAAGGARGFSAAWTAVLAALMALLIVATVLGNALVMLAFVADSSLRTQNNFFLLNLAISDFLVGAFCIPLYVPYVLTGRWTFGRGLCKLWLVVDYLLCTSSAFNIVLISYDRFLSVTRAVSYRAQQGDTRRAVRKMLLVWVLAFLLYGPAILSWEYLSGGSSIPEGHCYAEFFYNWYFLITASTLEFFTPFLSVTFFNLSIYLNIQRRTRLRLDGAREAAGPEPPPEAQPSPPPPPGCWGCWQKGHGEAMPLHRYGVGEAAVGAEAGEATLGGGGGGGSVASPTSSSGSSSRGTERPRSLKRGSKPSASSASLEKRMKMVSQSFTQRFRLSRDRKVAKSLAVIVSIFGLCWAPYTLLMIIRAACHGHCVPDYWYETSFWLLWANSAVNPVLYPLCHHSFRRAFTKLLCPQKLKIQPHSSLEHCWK
Sequence of Voltage-dependent L-type calcium channel subunit alpha-1C (P22002 whole entry): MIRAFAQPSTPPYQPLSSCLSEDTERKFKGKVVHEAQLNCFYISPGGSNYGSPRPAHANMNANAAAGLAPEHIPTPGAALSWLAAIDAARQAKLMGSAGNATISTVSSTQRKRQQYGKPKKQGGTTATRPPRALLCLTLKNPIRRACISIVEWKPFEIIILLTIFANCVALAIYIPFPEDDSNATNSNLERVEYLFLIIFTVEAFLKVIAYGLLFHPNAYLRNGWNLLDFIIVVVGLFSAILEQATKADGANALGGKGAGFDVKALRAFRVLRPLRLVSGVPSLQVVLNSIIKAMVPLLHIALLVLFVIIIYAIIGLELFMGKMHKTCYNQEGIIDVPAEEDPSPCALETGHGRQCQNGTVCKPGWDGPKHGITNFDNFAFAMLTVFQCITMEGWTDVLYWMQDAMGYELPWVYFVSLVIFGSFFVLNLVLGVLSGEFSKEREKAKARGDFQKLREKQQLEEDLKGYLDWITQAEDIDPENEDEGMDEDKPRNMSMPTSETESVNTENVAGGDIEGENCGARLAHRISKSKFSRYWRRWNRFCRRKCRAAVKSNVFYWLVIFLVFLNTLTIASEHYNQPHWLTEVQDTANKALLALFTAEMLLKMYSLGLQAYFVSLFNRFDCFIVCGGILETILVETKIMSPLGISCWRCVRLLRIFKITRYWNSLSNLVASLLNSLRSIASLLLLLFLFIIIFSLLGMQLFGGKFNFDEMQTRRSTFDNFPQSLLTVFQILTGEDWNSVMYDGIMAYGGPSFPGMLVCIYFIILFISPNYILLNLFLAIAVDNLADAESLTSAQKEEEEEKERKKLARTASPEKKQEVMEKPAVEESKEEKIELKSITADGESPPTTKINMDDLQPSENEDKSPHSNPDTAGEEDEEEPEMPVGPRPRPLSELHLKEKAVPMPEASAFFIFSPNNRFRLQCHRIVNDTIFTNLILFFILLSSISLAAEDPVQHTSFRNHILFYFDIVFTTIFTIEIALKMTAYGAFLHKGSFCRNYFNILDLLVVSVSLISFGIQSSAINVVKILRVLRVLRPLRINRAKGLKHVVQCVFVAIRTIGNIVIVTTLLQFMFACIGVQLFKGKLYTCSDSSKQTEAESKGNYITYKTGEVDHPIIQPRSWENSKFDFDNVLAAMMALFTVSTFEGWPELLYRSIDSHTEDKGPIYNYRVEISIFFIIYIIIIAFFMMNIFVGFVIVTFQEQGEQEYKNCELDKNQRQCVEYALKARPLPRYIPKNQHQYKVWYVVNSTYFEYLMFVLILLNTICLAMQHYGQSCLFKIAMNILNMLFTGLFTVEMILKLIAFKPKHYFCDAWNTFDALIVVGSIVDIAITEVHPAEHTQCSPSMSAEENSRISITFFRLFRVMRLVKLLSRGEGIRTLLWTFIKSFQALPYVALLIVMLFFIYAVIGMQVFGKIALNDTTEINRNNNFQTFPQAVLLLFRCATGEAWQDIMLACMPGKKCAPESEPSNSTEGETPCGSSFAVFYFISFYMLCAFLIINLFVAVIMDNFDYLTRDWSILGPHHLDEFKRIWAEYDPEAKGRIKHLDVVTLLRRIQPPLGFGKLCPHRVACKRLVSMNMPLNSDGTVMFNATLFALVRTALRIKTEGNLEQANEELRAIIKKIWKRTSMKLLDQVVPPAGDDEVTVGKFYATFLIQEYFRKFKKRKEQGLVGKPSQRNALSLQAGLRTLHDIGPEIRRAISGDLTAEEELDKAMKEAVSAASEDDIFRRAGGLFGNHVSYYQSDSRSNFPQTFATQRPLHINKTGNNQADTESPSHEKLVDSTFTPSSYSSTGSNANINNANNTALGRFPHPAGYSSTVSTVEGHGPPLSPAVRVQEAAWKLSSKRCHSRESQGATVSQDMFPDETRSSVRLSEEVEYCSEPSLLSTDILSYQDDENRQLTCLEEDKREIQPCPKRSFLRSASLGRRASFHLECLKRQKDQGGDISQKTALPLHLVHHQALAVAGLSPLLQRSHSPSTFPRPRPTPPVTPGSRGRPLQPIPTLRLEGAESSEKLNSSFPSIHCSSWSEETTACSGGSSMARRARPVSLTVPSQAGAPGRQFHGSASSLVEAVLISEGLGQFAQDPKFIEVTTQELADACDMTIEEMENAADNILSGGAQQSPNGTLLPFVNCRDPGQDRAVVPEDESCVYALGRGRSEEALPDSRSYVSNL

Row | SMILES | AC50 [1] [µM] | AC50 (Thromboxane A2 receptor) [µM] | AC50 (Bile salt export pump) [µM] | AC50 (Histamine H3 receptor) [µM] | AC50 (Adenosine receptor A1) [µM] | AC50 [2] [µM] | AC50 [3] [µM] | AC50 [4] [µM] | AC50 [5] [µM] | AC50 (Vasopressin V2 receptor) [µM]
1 | OC[C@H]1NC[C@H](O)[C@@H](O)[C@H]1O | > 30 | > 30 | > 300 |  |  |  |  |  |  | 
2 | CCOC(=O)[C@H](CCc1ccccc1)N[C@@H](C)C(=O)N1Cc2ccccc2C[C@H]1C(=O)O |  | > 30 | 100 | > 10 | > 30 | > 10 | > 10 | > 30 | > 10 | > 30
3 | C=CCOc1ccc(CC(=O)O)cc1Cl [ALCLOFENAC] | > 30 | > 30 | > 300 |  |  |  |  |  |  | 
4 | CN(C)CCC=C1c2ccccc2CCc2ccccc21 [AMITRIPTYLINE] |  | > 30 | 180 | 24 | > 30 |  |  | > 30 | > 10 | > 30
5 | CC(=O)Oc1ccccc1C(=O)O [ASPIRIN] |  | > 30 | > 300 | > 30 | > 30 | > 10 | > 30 |  | > 10 | > 30
6 | CN1CCN(C(c2ccccc2)c2ccc(Cl)cc2)CC1 (centres undefined) [CHLORCYCLIZINE] | 0.691 | 11.3 | > 300 |  |  |  |  |  |  | 
7 | CN(C)CCCC1(c2ccc(F)cc2)OCc2cc(C#N)ccc21 (centres undefined) [CITALOPRAM] |  | > 30 | > 300 | > 10 | > 30 | 0.678 |  | > 30 | > 10 | > 30
8 | NCC1(CC(=O)O)CCCCC1 [GABAPENTIN] |  | > 30 | > 300 | > 30 | > 30 | > 30 | > 30 | > 30 | > 10 | > 30
9 | N#Cc1ccnc(N2C(=O)CC[C@H]2C(=O)N(c2cncc(F)c2)[C@H](C(=O)NC2CC(F)(F)C2)c2ccccc2Cl)c1 [IVOSIDENIB] | > 30 | > 30 | 79 |  |  |  |  |  |  | 
10 | O=C(c1ccccc1)c1ccc2n1CCC2C(=O)O (centres undefined) [KETOROLAC] |  |  | > 300 | > 10 | > 10 | > 30 | > 30 | 0.0239 | > 30 | > 10
11 | CCCCCCO[C@@H](C)c1cccc(-c2csc(NC(=O)c3cc(Cl)c(/C=C(\C)C(=O)O)c(Cl)c3)n2)c1OC [LUSUTROMBOPAG] | 16.2 | > 30 | 4 |  |  |  |  |  |  | 
12 | Cc1cc(C)cc(OCC2CNC(=O)O2)c1 (centres undefined) [METAXALONE] | > 30 | > 30 | > 300 |  |  |  |  |  |  | 
13 | CCCCCCCC/C=C\CCCCCCCC(=O)O [OLEIC ACID] | 13.2 | > 30 | 260 |  |  |  |  |  |  | 
14 | CC1=C(C/C=C(\C)CCC[C@H](C)CCC[C@H](C)CCCC(C)C)C(=O)c2ccccc2C1=O [PHYTONADIONE] | > 30 | > 30 | 160 |  |  |  |  |  |  | 
15 | CC(=O)SCC(Cc1ccccc1)C(=O)NCC(=O)OCc1ccccc1 (centres undefined) [RACECADOTRIL] |  |  | 21 | > 30 | > 30 | > 30 | > 30 | > 30 | 28 | > 30
16 | CCOc1ccccc1OCCN[C@H](C)Cc1ccc(OC)c(S(N)(=O)=O)c1 [TAMSULOSIN] |  |  | > 300 | > 10 | > 30 | 6.4 | > 10 | > 30 | > 10 | > 30
17 | C[C@H](Cn1cnc2c(N)ncnc21)OCP(=O)(O)O [TENOFOVIR ANHYDROUS] |  |  | > 300 | > 30 | > 30 | > 30 | > 30 | > 30 | > 30 | > 30
18 | Cc1ccc(C(C)C)c(O)c1 [THYMOL] | 13.9 | > 30 | > 300 |  |  |  |  | 120 |  | 
19 | Cc1c(C)c2c(c(C)c1O)CCC(C)(COc1ccc(CC3SC(=O)NC3=O)cc1)O2 (centres undefined) [TROGLITAZONE] |  | 17.6 | 5.01 | > 30 | > 30 | 2 |  | 22.9 | 21 | > 30
